Laboratory results from paper PMC8605905 (Oxidative Medicine and Cellular Longevity, 2021).

Key:
Format in all cases: cell-based, Human
CRE-GFP 293 cells = test: CRE-GFP 293 reporter cell assay (flow cytometry); details: 5–10 μM, 5 h, in the presence or absence of Ca2+ ionophore (2 μM)
caspase 1 = test: Caspase 1 activity in Aβ-GFP cells; details: 5 μM, vs untreated cells
Method: Aβ-GFP or ∆K280 tauRD-DsRed SH-SY5Y cells were seeded into 6-well plates (5 × 10^5/well) and treated with retinoic acid, coumarin-chalcone derivatives, and doxycycline as previously described. On day 8, cells were collected and lysates were prepared with six freeze/thaw cycles. The supernatant was collected by centrifugation, followed by measurement of the caspase 1 activity in 50 μg aliquots of cell extract using the ICE fluorometric assay kit (BioVision, Milpitas, CA, USA). Following incubation of the mixture at 37°C for 2 h, fluorescence was measured with excitation/emission wavelengths at 400/505 nm (FLx800 fluorescence microplate reader). In addition, the collected cells were lysed by sonication. Acetylcholinesterase (AChE) activity in the supernatant was determined in 10 μg aliquots of cell extracts using the AChE activity assay kit (Sigma-Aldrich) according to the manufacture's protocol. Finally, the absorbance at 412 nm was measured using a Multiskan GO spectrophotometer (Thermo Fisher Scientific).

[1] = system: ∆K280 tauRD-DsRed SH-SY5Y cells; test: High content analysis of ΔK280 tauRD-DsRed fluorescence; details: tested 2.5–10 μM
Method: Human 293-derived Flp-In-293 cells (Invitrogen, Madison, WI, USA) were cultivated in Dulbecco's modified Eagle's medium (DMEM) containing 10% foetal bovine serum (FBS) (Thermo Fisher Scientific). Human neuroblastoma SH-SY5Y-derived Aβ-GFP [23] and ∆K280 tauRD-DsRed cells were kept in DMEM/nutrient mixture F12 (DMEM/F12) containing 10% FBS, 5 μg/ml blasticidin, and 100 μg/ml hygromycin (InvivoGen, San Diego, CA, USA). Doxycycline (Sigma-Aldrich) was applied to induce the expression of Aβ-GFP (5 μg/ml doxycycline) or ∆K280 tauRD-DsRed (2 μg/ml doxycycline).
On day 1, Aβ-GFP or ∆K280 tauRD-DsRed SH-SY5Y cells were seeded into 96-well plates (2.5 × 10^4/well) and treated with retinoic acid (10 μM; Sigma-Aldrich) to prompt neuronal differentiation. […] On day 8, cells were stained with Hoechst 33342 (0.1 μg/ml; Sigma-Aldrich) for 30 min, and cell images were automatically captured at excitation/emission wavelengths of 482/[…] (GFP fluorescence) or 543/593 nm (DsRed fluorescence) using a high content analysis (HCA) system (Micro Confocal High-Content Imaging System). Image Acquisition and Analysis Software (MetaXpress) (Molecular Devices, Sunnyvale, CA, USA) was used to analyse the images. CellROX Orange (5 μM; Molecular Probes, Eugene, OR, USA) (for Aβ-GFP cells) or dichloro-dihydro-fluorescein diacetate (DCFH-DA, 10 μM; Invitrogen) (for ∆K280 tauRD-DsRed cells) was added to the cells and incubated at 37°C for 30 min. The HCA system was used to measure intracellular ROS at 531/593 nm (CellROX Orange fluorescence) or 482/536 nm (DCFH-DA fluorescence) of excitation/emission wavelengths.

Structure (SMILES): CN(C)c1ccc(/C=C/C(=O)c2c(O)c3ccccc3oc2=O)cc1 [LM-021, (E)-3-(3-(4-(dimethylamino)phenyl)acryloyl)-4-hydroxy-2H-chromen-2-one]
- CRE-motif-driven GFP expression (CRE-GFP 293 cells): significantly activated
- Caspase 1 activity (caspase 1): reduced
- EC50 ([1]; Homo sapiens, ∆K280 tauRD-DsRed SH-SY5Y cells, read-out: Extrapolated EC50 in inhibiting ∆K280 tauRD aggregation (DsRed fluorescence)): 10 µM
- Concentration significantly elevating DsRed fluorescence intensity ([1]; day 8): 5 to 10 µM
